Publication PMC6627868 (Marine Drugs, 2019)

Assays:
[1] = simulated gastric fluid, pH 1.8
[2] = pH 6.5
[3] = simulated intestinal fluid, pH 6.5

In the case of `CC[C@H](C)[C@@H]1NC(=O)[C@@H]2CCCN2C(=O)[C@H](CO)NC(=O)[C@H](CCSC)NC(=O)[C@H](C)NC(=O)[C@H](CO)NC(=O)[C@@H]2CSSC[C@H](NC(=O)CN)C(=O)N[C@@H](CSSC[C@@H](C(N)=O)NC1=O)C(=O)N[C@@H](CO)C(=O)N[C@@H](Cc1cnc[nH]1)C(=O)N1CCC[C@H]1C(=O)N[C@@H](C(C)C)C(=O)N2` [TxID, α-Conotoxin TxID], the remaining at 48 h [1] is reported as 65.2 ± 2%, the “remaining amount in SIF after 2 h” value [2] is reported as 5.8 ± 2.0% and the remaining at 0.5 h [3] is reported as 36.3 ± 2%.
